The values that follow come from patent publication US11578095B2, “Compositions and methods for synthesizing 5'-Capped RNAs” (TriLink Biotechnologies, LLC, priority 2015, dated 2023).

Assay [1] deals with T1, T7 RNA polymerase (Escherichia phage T7, UniProt P00573).
T1 construct: purchased New England Biolabs M0251
Format: biochemical, T7 bacteriophage. The note with it: Primer/NTP Formulation 1: 6 mM primer, 1.5 mM GTP, 7.5 mM each ATP, CTP, UTP; capped peaks/(capped + 5′ OH peak). As to the method: A double stranded DNA transcription template encoding firefly luciferase was generated by polymerase chain reaction. The +1 template nucleotide was 2′-deoxycytidine. Transcription reactions were assembled with 25 ug/mL transcription template, 40 mM Tris-HCl (pH 8.0), 27 mM MgCl2, 2 mM spermidine, 10 mM DTT, 0.002% Triton X-100, 1000 unit/mL murine RNase inhibitor (New England Biolabs catalog #M0314), 2 unit/mL inorganic pyrophosphatase (New England Biolabs catalog #M2403), 4000 units/mL T7 RNA polymerase (New England Biolabs catalog #M0251), 6 mM ARCA (^m7G3′OmepppGG), 1.5 mM GTP, 7.5 mM ATP, 7.5 mM CTP and 7.5 mM UTP. Transcriptions were incubated at 37° C. for 2 hours. Reactions were supplemented with 10 mM Tris-HCl (pH 7.6), 2.5 mM MgCl2, 0.5 mM CaCl2 and 100 units/mL DNase I (New England Biolabs catalog #M0303) and incubated for 1 hour at 37° C. The resulting mRNAs were purified using an RNeasy Maxi kit (Qiagen catalog #75162) according to manufacturer's instructions. mRNAs were eluted in water and dephosphorylated by adjusting the solution to 50 mM Bis-Tris-Propane HCl (pH 6.0), 1 mM MgCl2, 0.1 mM ZnCl2 and 250 units/mg Antarctic phosphatase (New England Biolabs catalog #M0289). The reaction were incubated at 37° C. for 1 hour. The resulting mRNAs were purified using an RNeasy Maxi kit (Qiagen catalog #75162) according to manufacturer's instructions. mRNAs were eluted in water.
A double stranded firefly luciferase DNA transcription template specific for each trimer is generated by polymerase chain reaction. These templates differed in template nucleotides +1 and +2. For a given trimer, template nucleotide +1 was complementary to B1 (the nucleotide destined to become transcript nucleotide +1). Likewise template nucleotide +2 was complementary to […] (the nucleotide destined to become transcript nucleotide +2; see Example 10)). Transcription reactions are assembled with 25 ug/mL transcription template, 40 mM Tris-HCl (pH 8.0), 27 mM MgCl2, 2 mM spermidine, 10 mM DTT, 0.002% Triton X-100, 1000 unit/mL murine RNase inhibitor (New England Biolabs catalog #M0314), 2 unit/mL inorganic pyrophosphatase (New England Biolabs catalog #M2403), 4000 units/mL T7 RNA polymerase (New England Biolabs catalog #M0251) and 6 mM of initiating capped oligonucleotide primer, 1.5 mM GTP and 7.5 mM each of ATP, CTP and UTP. In subsequent examples, this primer/NTP formulation will be referred to as Primer/NTP Formulation 1. It is clear to one skilled in the art that other polymerases such as T7, T3 or SP6 RNA polymerases could be used instead of T7 RNA polymerase to perform the same function by using their respective promoters. Transcription reaction mixtures are incubated at 37° C. for 2 hours. Reactions are supplemented with 10 mM Tris-HCl (pH 7.6), 2.5 mM MgCl2, 0.5 mM CaCl2 and 100 units/mL DNase I (New England Biolabs catalog #M0303) and incubated for 1 hour at 37° C. The resulting mRNAs are purified using an RNeasy Maxi kit (Qiagen catalog #75162) according to manufacturer's instructions. mRNAs are eluted in water and dephosphorylated by adjusting the solution to 50 mM Bis-Tris-Propane HCl (pH 6.0), 1 mM MgCl2, 0.1 mM ZnCl2 and 250 units/mg Antarctic phosphatase (New England Biolabs catalog #M0289). The reaction is incubated at 37° C. for 1 hour. The resulting mRNAs are purified using an RNeasy Maxi kit (Qiagen catalog #75162) according to manufacturer's instructions. mRNAs are eluted in water.
Initiating capped oligonucleotide primer ^7mG3′OmepppA2′OmepG2′OmepG were used in transcription. Transcription were carried out as in Example 11 with the following modifications. A double stranded DNA transcription template specific for tetramer was generated by polymerase chain reaction. The template nucleotide +1 (2′-deoxythymidine) was complementary to Adenosine (the first nucleotide of the primer destined to become a transcript nucleotide +1).

The target of the next assay is T7 RNAP (Escherichia phage T7, UniProt P00573). The note with it: transcription initiation; read-out: Kd for the first initiating NTP; cited from earlier work.
Assay [2] concerns the target T1, T7 RNA polymerase. Description: Capping assay (LC-MS) of mRNA made with ^m7GpppA2′OmepG on "TC" vs "CC" transcription template. Format: biochemical, T7 bacteriophage. As to the method:
(§1) A double stranded firefly luciferase DNA transcription template was used with 2′-deoxythymidine and 2′-deoxycytidine residues at template positions +1 and +2, respectively. Two transcription reactions were assembled with 25 ug/mL transcription template, 40 mM Tris-HCl (pH 8.0), 27 mM MgCl2, 2 mM spermidine, 10 mM DTT, 0.002% Triton X-100, 1000 unit/mL murine RNase inhibitor (New England Biolabs catalog #M0314), 2 unit/mL inorganic pyrophosphatase (New England Biolabs catalog #M2403), 4000 units/mL T7 RNA polymerase (New England Biolabs catalog #M0251). The two transcriptions differed in the amount of initiating capped oligonucleotide, amount of NTPs and the identity of NTPs. The first transcription was designed to mimic the transcription conditions of Ishikawa et al. (Nucleic Acids Symposium Series No. 53:129 (2009)). This transcription reaction contained 6 mM of ^m7GpppA2′OmepG initiating capped oligonucleotide primer, 0.9 mM GTP and 7.5 mM of ATP, CTP and UTP. In subsequent examples this primer/NTP formulation will be referred to as Primer/NTP Formulation 2. In this formulation, the initiating oligonucleotide primer was in greater than 6 fold excess over GTP. The second transcription used 5 mM of ^m7GpppA2′OmepG initiating capped oligonucleotide primer, 5 mM GTP, ATP, CTP and pseudouridine triphosphate […]. In subsequent examples this primer/NTP formulation will be referred to as Primer/NTP Formulation 3. In Primer/NTP Formulation 3, the GTP concentration was increased in order to produce commercially useful amounts of RNA. It is clear to one skilled in the art that other polymerases such as T7, T3 or SP6 RNA polymerases could be used instead of T7 RNA polymerase to perform the same function by using their respective promoters. Transcription reaction mixtures are incubated at 37° C. for 2 hours. Reactions were supplemented with 10 mM Tris-HCl (pH 7.6), 2.5 mM MgCl2, 0.5 mM CaCl2 and 100 units/mL DNase I (New England Biolabs catalog #M0303) and incubated for 1 hour at 37° C. The resulting mRNAs were purified using an RNeasy Maxi kit (Qiagen catalog #75162) according to manufacturer's instructions. mRNAs were eluted in water and dephosphorylated by adjusting the solution to 50 mM Bis-Tris-Propane HCl (pH 6.0), 1 mM MgCl2, 0.1 mM ZnCl2 and 250 units/mg Antarctic phosphatase (New England Biolabs catalog #M0289). The reaction was incubated at 37° C. for 1 hour for Primer/NTP Formulation 2 and 3 hours for Primer/NTP Formulation 3 hour. The resulting mRNAs were purified using an RNeasy Maxi kit (Qiagen catalog #75162) according to manufacturer's instructions. mRNAs were eluted in water. The purified transcription yields with Primer/NTP Formulation 2 and 3 were 0.7 milligram/milliliter transcription reaction (mg/mL) and 3.9 mg/mL transcription reaction, respectively.
A double stranded firefly luciferase DNA transcription template was used in which the +1 and +2 template nucleotides were cytidines and thus not completely complementary to the ^m7GpppA2′OmepG initiating capped oligonucleotide primer. Two transcription reactions were assembled with 25 ug/mL transcription template, 40 mM Tris-HCl (pH 8.0), 27 mM MgCl2, 2 mM spermidine, 10 mM DTT, 0.002% Triton X-100, 1000 unit/mL murine RNase inhibitor (New England Biolabs catalog #M0314), 2 unit/mL inorganic pyrophosphatase (New England Biolabs catalog #M2403), 4000 units/mL T7 RNA polymerase (New England Biolabs catalog #M0251). The two transcriptions differed in the amount of initiating capped oligonucleotide and NTPs. The first transcription was designed to mimic the transcription conditions of Ishikawa et al. (Nucleic Acids Symposium Series No. 53: 129 (2009)). This transcription reaction contained Primer/NTP Formulation 2. The second transcription used Primer/NTP Formulation 3. It is clear to one skilled in the art that other polymerases such as T7, T3 or SP6 RNA polymerases could be used instead of T7 RNA polymerase to perform the same function by using their respective promoters. […]

Assay [3] has as its target T1, T7 RNA polymerase. In words: In vitro transcription of firefly luciferase template, purified transcription yield. The format is biochemical, T7 bacteriophage. As for the experimental part:
as §1, with “reaction, respectively. […]” for “reaction, respectively.”

The subject of a further assay is THP-1 cells. In words: Translation of luciferase mRNAs in differentiated THP-1 cells. The format is cell-based. The note with it: 100 ng mRNA per well. As to the method: In order to assess the expression of luciferase mRNAs generated in Examples 14 and 15, mRNAs were transfected into THP-1 cells (ATCC, Catalog #TIB-202) with six replicates. THP-1 cells were cultured in ATCC formulated RPMI-1640 (ATCC, Catalog #30-2001) supplemented with 10% FBS, sodium pyruvate and penicillin/streptomycin at 37° C. under an atmosphere of 5% CO2. Cells were seeded at 2E+05 cells per well in a 24-well plate format in the presence of the phorbol ester 12-O-Tetradecanoylphorbol-13-acetate (TPA; Cell Signaling Technologies, Catalog #4174) to induce differentiation. Cells were transfected with 100 ng of mRNA per well 72 hours after seeding. For comparison, cells were also transfected with a Cap0 luciferase mRNA generated by initiation with ARCA. At 20 hours post-transfection, cells were harvested and luciferase activity was measured using a ONE-Glo Luciferase Assay System kit (Promega Catalog #E6120) according to the manufacturer's recommendations. Luminescence was measured using a GloMax-Multi+Detection System instrument according to the manufacturer's recommendations. Data were graphed as the mean of six replicates +/−the standard deviation from the mean. Data were analyzed using the Unpaired t-test to generate p values as a measure of significance. […] In FIG. 14B, we also assessed the activity of an mRNA that was made with the “TC” Template and capped with ARCA (Cap 0). […]

For assay [4] the following is noted: excess of ^7mGpppG over pppG from 4:1 to 10:1; cited from earlier work.

T1 sequence (P00573 whole entry): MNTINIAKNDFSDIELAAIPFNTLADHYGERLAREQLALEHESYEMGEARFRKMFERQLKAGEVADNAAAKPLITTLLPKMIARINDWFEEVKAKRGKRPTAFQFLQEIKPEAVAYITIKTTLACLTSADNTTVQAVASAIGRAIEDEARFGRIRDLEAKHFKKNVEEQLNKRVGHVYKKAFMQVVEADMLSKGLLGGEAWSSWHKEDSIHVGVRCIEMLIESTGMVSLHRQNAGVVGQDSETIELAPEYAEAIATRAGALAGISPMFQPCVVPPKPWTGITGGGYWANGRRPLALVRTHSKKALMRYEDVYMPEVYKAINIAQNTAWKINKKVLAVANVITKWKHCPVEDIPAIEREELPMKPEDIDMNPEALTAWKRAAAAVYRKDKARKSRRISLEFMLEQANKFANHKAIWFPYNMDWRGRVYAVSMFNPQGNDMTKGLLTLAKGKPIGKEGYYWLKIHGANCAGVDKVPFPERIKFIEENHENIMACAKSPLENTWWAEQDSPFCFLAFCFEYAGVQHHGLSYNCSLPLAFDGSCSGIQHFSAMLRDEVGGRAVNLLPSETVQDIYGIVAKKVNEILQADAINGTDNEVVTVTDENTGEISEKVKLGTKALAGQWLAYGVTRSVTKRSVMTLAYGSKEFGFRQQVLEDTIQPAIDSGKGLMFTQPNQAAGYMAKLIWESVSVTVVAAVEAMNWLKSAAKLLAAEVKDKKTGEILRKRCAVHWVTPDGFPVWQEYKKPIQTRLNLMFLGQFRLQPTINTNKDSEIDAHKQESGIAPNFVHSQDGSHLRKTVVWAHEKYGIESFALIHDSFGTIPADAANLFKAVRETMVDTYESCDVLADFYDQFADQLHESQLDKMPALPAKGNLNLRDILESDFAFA
Chain of T7 RNAP (P00573 whole entry): as above

For ^m7GpppA2′OmepG2′OmepG, the “observed % capping (capping efficiency)” value at T7 RNA polymerase [1] was 50%.

With ^m7GpppC2′OmepG, the “observed % capping (capping efficiency)” value on T7 RNA polymerase [1] is 98%.

For the compound ^m7G3′OmepppA2′OmepG, on T7 RNA polymerase [1], the “observed % capping (capping efficiency)” value came out at 99%.

As to `Nc1nc2c(ncn2[C@@H]2O[C@H](COP(=O)(O)OP(=O)(O)OP(=O)(O)O)[C@@H](O)[C@H]2O)c(=O)[nH]1` [GTP, guanosine triphosphate], the Kd at T7 RNAP was 2000 µM.

^m7GpppA2′OmepG: at T7 RNA polymerase [1], the “observed % capping (capping efficiency)” value is 99%. The “fidelity of templated transcription initiation” value on T7 RNA polymerase [2] (template +1/+2 2′-deoxythymidine/2′-deoxycytidine, Formulations 2 and 3 (FIGS. 13A, 13B)) was “Only minor aberrant initiation products were detected”; on T7 RNA polymerase [2] (template +1/+2 cytidine, Formulations 2 and 3 (FIGS. 13C, 13D)), “initiated in two registers”. Moreover, the capping efficiency at T7 RNA polymerase [2] (template +1/+2 2′-deoxythymidine/2′-deoxycytidine, Primer/NTP Formulation 2 (FIG. 13A)) is listed as 99%; on T7 RNA polymerase [2] (template +1/+2 2′-deoxythymidine/2′-deoxycytidine, Primer/NTP Formulation 3 (FIG. 13B)), 96%. For the same compound, the “calculated capping efficiency (Cap 1+A and Cap 1 GtoA)” value is 97% at T7 RNA polymerase [2] (template +1/+2 cytidine, Primer/NTP Formulation 2 (FIG. 13C)) and 77% at T7 RNA polymerase [2] (template +1/+2 cytidine, Primer/NTP Formulation 3 (FIG. 13D)). Moreover, the purified transcription yield on T7 RNA polymerase [3] (template +1/+2 2′-deoxythymidine/2′-deoxycytidine, Primer/NTP Formulation 2) is 0.7 mg/mL; at T7 RNA polymerase [3] (template +1/+2 2′-deoxythymidine/2′-deoxycytidine, Primer/NTP Formulation 3), 3.9 mg/mL; at T7 RNA polymerase [3] (template +1/+2 cytidines, Primer/NTP Formulation 2) it was 0.6 mg/mL; on T7 RNA polymerase [3] (template +1/+2 cytidines, Primer/NTP Formulation 3) it was 3.9 mg/mL. The “translation (luciferase activity), "TC" template vs "CC" template” value with THP-1 cells (20 hours post-transfection, Primer/NTP Formulations 2 and 3 (FIG. 14A, 14B)) is “significantly superior”.

For the compound ^m7G3′OmepppC2′OmepG, the “observed % capping (capping efficiency)” value on T7 RNA polymerase [1] was 97%.

For the compound ^m7G3′OmepppG2′OmepG, the “observed % capping (capping efficiency)” value at T7 RNA polymerase [1] was 87%.

On to “^7mG(3′-O-Me)pppG [^m7G3′OmepppG, reference compound]”, for which the “observed % capping (capping efficiency)” value on T7 RNA polymerase [1] came to 79%. Further, in the assay on THP-1 cells ("TC" template, 20 hours post-transfection (FIG. 14B)), the “luciferase activity relative to transcripts made with ^m7GpppA2′OmepG on "TC" template” value was “significantly less activity”.

As for ^m7GpppG2′OmepG, the “observed % capping (capping efficiency)” value at T7 RNA polymerase [1] is reported as 89%.

Regarding ^7mG(5′)ppp(5′)G [^7mGpppG], in assay [4], the “5′-Cap structure mRNA transcripts” value is 80-90%.
